Experimental data reported in patent US11209421B2, “Cytidine deaminase expression level in cancer as a new therapeutic target” (CENTRE NATIONAL DE LA RECHERCHE SCIENTIFIQUE, priority 2016, dated 2021).
Where two headings read alike, the source gives them in different places.

Tests used:
CDA mRNA = assay: RT-qPCR analysis of the induction of CDA expression; type: cell-based, human; conditions: 96 hours, 2.5 μM 5-Aza-dC
Protocol: For evaluation of the induction of CDA expression, RNA was isolated from cell lines continuously treated with 1 or 2.5 μM of 5-Aza-2′-deoxycytidine (5-Aza-dC—Sigma Aldrich) for 96 hours.
The procedure for real-time PCR (RT-qPCR) was as described by Gemble et al. (cf. Reference 19). In brief, total RNA was extracted from PDX tissues and from cell lines with the RNeasy Mini Kit (Qiagen). Reverse transcription was performed on 1 μg of RNA with the GoScript enzyme (Promega). The cDNA obtained was used at a dilution of 1/10 for real-time PCR with the SYBER Green supermix reagent (Biorad) in a Biorad CFX96 machine. Each sample was run in triplicate. Relative expression was determined by the 2^−ΔΔCt method. GAPDH and TBP were used as internal controls.

CDA protein = assay: Western blot analysis of the induction of CDA expression; type: cell-based, human; conditions: HCC-1954 and IGROV-1, 1 μM 5-Aza-dC for 96 h
Protocol: For western blotting, cells were harvested by centrifugation and lysed in 8 M urea, 50 mM Tris-HCl, pH 7.5 and 150 mM β-mercaptoethanol buffer supplemented with protease inhibitor (ThermoScientific). They were then sonicated and heated. Protein concentration was estimated with the BCA kit (Pierce) and the equivalent of 20 μg or protein per cell lysate was run on a 4-12% Bis-Tris pre-cast gel (Life Technologies). The proteins were then transferred to PVDF membranes, which were probed with the appropriate antibody. Protein bands were visualized with a CCD camera (BioRad).

[1] = test system: breast cancer cell lines (MDA-MB-231, HCC-1954, MCF-7, BT-20) and IGROV-1
Protocol: D, Cell viability, as assessed in MTT assays on breast cancer cell lines (MDA-MB-231, HCC-1954, MCF-7, BT-20) and an ovarian cell cancer line (IGROV-1) after 96 h of treatment with 5-Aza-dC. Error bars represent the mean±SD of 3 independent experiments for IGROV-1 and 2 experiments for the other cell lines. […] The dashed lines indicate the 5-Aza-dC concentrations used in this study.
Cell viability was carried out with 3-(4,5-dimethyl-2-thiazolyl)-2,5 diphenyl-2H-tetrazolium bromide (MTT-Life Technologies) in 96-well microplates.

MDA-MB-231 xenograft = conditions: cited from earlier work
MDA-MB-468 xenograft = conditions: cited from earlier work; for median tumor growth inhibition: compared to control
CDA-depleted HeLa cells = assay: Images of CDA-depleted HeLa cells 24 h after Dasatinib treatment; type: cell-based, human; conditions: 24 h after 0.5 or 1 μM
HCC-1954 cells = assay: MTT cell viability, HCC-1954 (gemcitabine after 5-Aza-dC pretreatment); type: cell-based, human; conditions: pretreatment 96 h with 1 μM 5-Aza-dC versus untreated, then gemcitabine 72 hours
Protocol: (§1) Cell viability was carried out with 3-(4,5-dimethyl-2-thiazolyl)-2,5 diphenyl-2H-tetrazolium bromide (MTT-Life Technologies) in 96-well microplates. The functionality of CDA was assessed by plating HCC-1954 and IGROV-1 cells at densities of 2000 and 3000 cells/well, respectively, on the day before pretreatment and at a density of 800 cells/well for control conditions. Cells were then left untreated or subjected to pretreatment with 1 μM 5-Aza-dC for 96 h. The cells were washed twice with PBS buffer, placed in fresh medium and incubated for 72 hours in the presence of various concentrations of gemcitabine, from 0.001 to 1 μM (Sigma Aldrich). The data were normalized to corresponding controls, for each condition.

IGROV-1 cells = assay: MTT cell viability, IGROV-1; type: cell-based, human; conditions: pretreatment 96 h with 1 μM 5-Aza-dC versus untreated, then gemcitabine 72 hours
Protocol: as §1

[2] = MDA-MB-231 xenograft mice, 70 mg/kg

Nc1ncn([C@H]2C[C@H](O)[C@@H](CO)O2)c(=O)n1 [5-Aza-dC, 5-Aza-2′-deoxycytidine]
induction of CDA mRNA levels (CDA mRNA; 7 CDA-deficient cell lines): up to 1000 fold | induction of CDA transcript levels (CDA mRNA; MDA-MB-231, HOP-92, HCC-1143 and HCC-1937 control cell lines with constitutively high CDA): two-fold | induction of CDA protein production (CDA protein): strongly induced the production of a functional CDA protein | toxicity (cell viability, MTT) [1]: without major toxicity

Cc1c(F)c(N)c2c(=O)cc(-c3ccc(NC(=O)[C@@H](N)CCCCN)c(F)c3)oc2c1F [AFP464]
tolerance (MDA-MB-231 xenograft; MDA-MB-231 xenograft mice, 35 mg/kg): well tolerated | body weight loss (MDA-MB-231 xenograft; [2]): up to 15% | death of mice during the course of treatment (MDA-MB-231 xenograft; [2]): 1 of 7 | antitumor activity (inhibition) (MDA-MB-231 xenograft; MDA-MB-231 xenograft, AFP464 alone, 35 or 70 mg/kg): 0% | tolerance (MDA-MB-468 xenograft; MDA-MB-468 xenograft mice, 35 and 50 mg/kg): well tolerated | tumor growth (MDA-MB-468 xenograft; MDA-MB-468 xenograft, 35 or 50 mg/kg i.v., compared to vehicle control): statistically significantly delayed tumor growth | median tumor growth inhibition (MDA-MB-468 xenograft; MDA-MB-468 xenograft, after one cycle of treatment): 57% | median tumor growth inhibition (MDA-MB-468 xenograft; MDA-MB-468 xenograft, after two cycles of treatment): 54%

Cc1nc(Nc2ncc(C(=O)Nc3c(C)cccc3Cl)s2)cc(N2CCN(CCO)CC2)n1 [NSC 759877, Dasatinib]
effect on cell morphology (images) (CDA-depleted HeLa cells): no effect

Nc1ccn([C@@H]2O[C@H](CO)[C@@H](O)C2(F)F)c(=O)n1 [gemcitabine]
gemcitabine resistance (cell survival, MTT) (HCC-1954 cells): significant increase in gemcitabine resistance | gemcitabine resistance (cell survival, MTT) (IGROV-1 cells): significant increase in gemcitabine resistance
